Measurements published in US11629139B2 (priority 2017, dated 2023).
pIC50: −log10 of the molar value.

Test system: vesicular stomatitis virus particles (VSV) pseudotyped with EboV Zaire GP
Assay: microbe, parasite or virus in culture
Assay type: cell-based
Settings: Vesicular stomatitis virus

SMILES	pIC50
COC(=O)c1ccc(COc2ccc(Cl)cc2CN2CCN(C(=O)CNC(=O)C3C4CC(F)(F)CC43)CC2)cc1 (stereo not drawn) [Compound 1346, Methyl 4-((4-chloro-2-((4-((3,3-difluorobicyclo[3.1.0]hexane-6-carbonyl)glycyl)piperazin-1-yl)methyl)phenoxy)methyl)benzoate]	6.70
N#Cc1cc(Br)cc(CN2CCN(C(=O)CNC(=O)CC34CC5CC(CC(C5)C3)C4)CC2)c1 [Compound 1348, 2-((1R,3R,5S)-Adamantan-1-yl)-N-(2-(4-(3-bromo-5-cyanobenzyl)piperazin-1-yl)-2-oxoethyl)acetamide]	5.89
Nc1c(Cl)cc(Cl)cc1CN1CCN(C(=O)CNC(=O)CC23CC4CC(CC(C4)C2)C3)CC1 [Compound 1349, 2-((1R,3R,5S)-Adamantan-1-yl)-N-(2-(4-(2-amino-3,5-dichlorobenzyl)piperazin-1-yl)-2-oxoethyl)acetamide]	6.30
O=C(CC12CC3CC(CC(C3)C1)C2)NCC(=O)N1CCN(Cc2cc(Cl)cc(Cl)c2Cl)CC1 [Compound 1350, 2-((1R,3R,5S)-adamantan-1-yl)-N-(2-oxo-2-(4-(2,3,5-trichlorobenzyl)piperazin-1-yl)ethyl)acetamide]	6.10
O=C(CC12CC3CC(CC(C3)C1)C2)NCC(=O)N1CCN(Cc2cc(Cl)ccc2Br)CC1 [Compound 1351, 2-((1R,3R,5S)-Adamantan-1-yl)-N-(2-(4-(2-bromo-5-chlorobenzyl)piperazin-1-yl)-2-oxoethyl)acetamide]	5.96
C#Cc1ccc(F)c(CN2CCN(C(=O)CNC(=O)CC34CC5CC(CC(C5)C3)C4)CC2)c1 [Compound 1352, 2-((1R,3R,5S)-Adamantan-1-yl)-N-(2-(4-(5-ethynyl-2-fluorobenzyl)piperazin-1-yl)-2-oxoethyl)acetamide]	5.77
O=C(CC12CC3CC(CC(C3)C1)C2)NCC(=O)N1CCN(Cc2cc(F)c(F)cc2Cl)CC1 [Compound 1353, 2-((1R,3R,5S)-Adamantan-1-yl)-N-(2-(4-(2-chloro-4,5-difluorobenzyl)piperazin-1-yl)-2-oxoethyl)acetamide]	5.82
O=C(CC12CC3CC(CC(C3)C1)C2)NCC(=O)N1CCN(Cc2cc(OC3CC3)ccc2F)CC1 [Compound 1354, 2-((1R,3R,5S)-Adamantan-1-yl)-N-(2-(4-(5-cyclopropoxy-2-fluorobenzyl)piperazin-1-yl)-2-oxoethyl)acetamide]	< 5.70
Nc1ccc(Br)cc1CN1CCN(C(=O)CNC(=O)CC2CCC(F)(F)CC2)CC1 [Compound 1355, N-(2-(4-(2-Amino-5-bromobenzyl)piperazin-1-yl)-2-oxoethyl)-2-(4,4-difluorocyclohexyl)acetamide]	5.76
O=C(NCC(=O)N1CCN(Cc2cc(Br)ccc2Cl)CC1)C1C2CC(F)(F)CC21 (stereo not drawn) [Compound 1356, N-(2-(4-(5-bromo-2-chlorobenzyl)piperazin-1-yl)-2-oxoethyl)-3,3-difluorobicyclo[3.1.0]hexane-6-carboxamide]	< 5.70
COC(=O)c1ccc(COc2ccc(Cl)cc2CN2CCN(C(=O)CNC(=O)C3CC3(F)F)CC2)cc1 (stereo not drawn) [Compound 1357, Methyl 4-((4-chloro-2-((4-((2,2-difluorocyclopropane-1-carbonyl)glycyl)piperazin-1-yl)methyl)phenoxy)methyl)benzoate]	6.30
COC(=O)c1ccc(COc2ccc(Cl)cc2CN2CCN(C(=O)CNC(=O)C(F)(F)C(F)F)CC2)cc1 [Compound 1358, Methyl 4-((4-chloro-2-((4-((2,2,3,3-tetrafluoropropanoyl)glycyl)piperazin-1-yl)methyl)phenoxy)methyl)benzoate]	6.70
Nc1ccc(-c2ccc(F)cc2)cc1CN1CCN(C(=O)CNC(=O)CC2CCC(F)(F)CC2)CC1 [Compound 1359, N-(2-(4-((4-Amino-4′-fluoro-[1,1′-biphenyl]-3-yl)methyl)piperazin-1-yl)-2-oxoethyl)-2-(4,4-difluorocyclohexyl)acetamide]	< 5.70
NC(=O)Nc1ccc(Br)cc1CN1CCN(C(=O)CNC(=O)CC2CCC(F)(F)CC2)CC1 [Compound 1360, N-(2-(4-(5-Bromo-2-ureidobenzyl)piperazin-1-yl)-2-oxoethyl)-2-(4,4-difluorocyclohexyl)acetamide]	< 5.70
NC(=O)Nc1ccc(Cl)cc1CN1CCN(C(=O)CNC(=O)CC2CCC(F)(F)CC2)CC1 [Compound 1361, N-(2-(4-(5-Chloro-2-ureidobenzyl)piperazin-1-yl)-2-oxoethyl)-2-(4,4-difluorocyclohexyl)acetamide]	< 5.70
Nc1ccc(Br)cc1CN1CCN(C(=O)CNC(=O)C2C3CC(F)(F)CC32)CC1 (stereo not drawn) [Compound 1362, N-(2-(4-(2-Amino-5-bromobenzyl)piperazin-1-yl)-2-oxoethyl)-3,3-difluorobicyclo[3.1.0]hexane-6-carboxamide]	< 5.70
O=C(CC12CC3CC(CC(C3)C1)C2)NCC(=O)N1CCN(Cc2c(Cl)cccc2Cl)CC1 [Compound 1363, 2-((1R,3R,5S)-Adamantan-1-yl)-N-(2-(4-(2,6-dichlorobenzyl)piperazin-1-yl)-2-oxoethyl)acetamide]	6.00
NC(=O)c1ccc(Br)cc1CN1CCN(C(=O)CNC(=O)CC23CC4CC(CC(C4)C2)C3)CC1 [Compound 1364, 2-((4-((2-((1R,3R,5S)-Adamantan-1-yl)acetyl)glycyl)piperazin-1-yl)methyl)-4-bromobenzamide]	5.72

SMILES	pIC50
O=C(CC1CCC(F)(F)CC1)NCC(=O)N1CCN(Cc2cc(Cl)cc(OC3CC3)c2)CC1 [Compound 1365, N-(2-(4-(3-Chloro-5-cyclopropoxybenzyl)piperazin-1-yl)-2-oxoethyl)-2-(4,4-difluorocyclohexyl)acetamide]	5.80
O=C(CC1CCC(F)(F)CC1)NCC(=O)N1CCN(Cc2cc(Cl)ccc2Cl)CC1 [Compound 1366, N-(2-(4-(2,5-Dichlorobenzyl)piperazin-1-yl)-2-oxoethyl)-2-(4,4-difluorocyclohexyl)acetamide]	< 5.70
O=C(CC1CCC(F)(F)CC1)NCC(=O)N1CCN(Cc2cc(Cl)ccc2F)CC1 [Compound 1367, N-(2-(4-(5-chloro-2-fluorobenzyl)piperazin-1-yl)-2-oxoethyl)-2-(4,4-difluorocyclohexyl)acetamide]	< 5.70
O=C(CC1CCC(F)(F)CC1)NCC(=O)N1CCN(Cc2cc(Cl)c(F)cc2F)CC1 [Compound 1368, N-(2-(4-(5-chloro-2,4-difluorobenzyl)piperazin-1-yl)-2-oxoethyl)-2-(4,4-difluorocyclohexyl)acetamide]	< 5.70
O=C(CC1CCC(F)(F)CC1)NCC(=O)N1CCN(Cc2cc(Cl)cc(F)c2F)CC1 [Compound 1369, N-(2-(4-(5-Chloro-2,3-difluorobenzyl)piperazin-1-yl)-2-oxoethyl)-2-(4,4-difluorocyclohexyl)acetamide]	< 5.70
O=C(CC1CCC(F)(F)CC1)NCC(=O)N1CCN(Cc2cc(Br)ccc2F)CC1 [Compound 1370, N-(2-(4-(5-Bromo-2-fluorobenzyl)piperazin-1-yl)-2-oxoethyl)-2-(4,4-difluorocyclohexyl)acetamide]	~5.66
N#Cc1ccc(Br)cc1CN1CCN(C(=O)CNC(=O)CC2CCC(F)(F)CC2)CC1 [Compound 1371, N-(2-(4-(5-Bromo-2-cyanobenzyl)piperazin-1-yl)-2-oxoethyl)-2-(4,4-difluorocyclohexyl)acetamide]	< 5.70
O=C(CC1CCC(F)(F)CC1)NCC(=O)N1CCN(Cc2cc(Cl)ccc2OC(F)(F)F)CC1 [Compound 1372]	< 5.70
O=C(CC1CCC(F)(F)CC1)NCC(=O)N1CCN(Cc2cc(Br)ccc2Cl)CC1 [Compound 1374, N-(2-(4-(5-Bromo-2-chlorobenzyl)piperazin-1-yl)-2-oxoethyl)-2-(4,4-difluorocyclohexyl)acetamide]	< 5.70
O=C(CC1CCC(F)(F)CC1)NCC(=O)N1CCN(Cc2cc(Br)ccc2NC(=O)C2CC2)CC1 [Compound 1375, N-(4-Bromo-2-((4-((2-(4,4-difluorocyclohexyl)acetyl)glycyl)piperazin-1-yl)methyl)phenyl)cyclopropanecarboxamide]	< 5.70
COC(=O)c1ccc(COc2ccccc2CN2CCN(C(=O)CNC(=O)C3(F)CC3)CC2)cc1 [Compound 1376, Methyl 4-((2-((4-((1-fluorocyclopropane-1-carbonyl)glycyl)piperazin-1-yl)methyl)phenoxy)methyl)benzoate]	< 5.70
O=C(CC1CCC(F)(F)CC1)NCC(=O)N1CCN(Cc2cc(Cl)ccc2NC(=O)C2CC2)CC1 [Compound 1378, N-(4-Chloro-2-((4-((2-(4,4-difluorocyclohexyl)acetyl)glycyl)piperazin-1-yl)methyl)phenyl)cyclopropanecarboxamide]	< 5.70
O=C(CC1CCC(F)(F)CC1)NCC(=O)N1CCN(Cc2cc(Cl)ccc2NS(=O)(=O)C2CC2)CC1 [Compound 1379, N-(2-(4-(5-Chloro-2-(cyclopropanesulfonamido)benzyl)piperazin-1-yl)-2-oxoethyl)-2-(4,4-difluorocyclohexyl)acetamide]	~5.66
Nc1c(Cl)cc(Cl)cc1CN1CCN(C(=O)CNC(=O)CC2CCC(F)(F)CC2)CC1 [Compound 1381, N-(2-(4-(2-Amino-3,5-dichlorobenzyl)piperazin-1-yl)-2-oxoethyl)-2-(4,4-difluorocyclohexyl)acetamide]	< 5.70
O=C(CC1CCC(F)(F)CC1)NCC(=O)N1CCN(Cc2cccc(Cl)c2Cl)CC1 [Compound 1382, N-(2-(4-(2,3-Dichlorobenzyl)piperazin-1-yl)-2-oxoethyl)-2-(4,4-difluorocyclohexyl)acetamide]	< 5.70
O=C(CC1CCC(F)(F)CC1)NCC(=O)N1CCN(Cc2cc(Cl)cc(Cl)c2)CC1 [Compound 1383, N-(2-(4-(3,5-dichlorobenzyl)piperazin-1-yl)-2-oxoethyl)-2-(4,4-difluorocyclohexyl)acetamide]	< 5.70
COc1ccc(Cl)cc1CN1CCN(C(=O)CNC(=O)CC2CCC(F)(F)CC2)CC1 [Compound 1384, N-(2-(4-(5-Chloro-2-methoxybenzyl)piperazin-1-yl)-2-oxoethyl)-2-(4,4-difluorocyclohexyl)acetamide]	6.48
Nc1cc(Cl)cc(CN2CCN(C(=O)CNC(=O)CC3CCC(F)(F)CC3)CC2)c1 [Compound 1385, N-(2-(4-(3-Amino-5-chlorobenzyl)piperazin-1-yl)-2-oxoethyl)-2-(4,4-difluorocyclohexyl)acetamide]	5.66
